Source: US9006450B2 (Boehringer Ingelheim International GmbH, priority 2010, dated 2015)

biological target: T1, human ACC2 (Homo sapiens, UniProt O00763); assay: ACC2 assay, spectrophotometric 384 well assay (NADH-linked, coupled lactate dehydrogenase/pyruvate kinase); assay type: biochemical; conditions: ACC2 assay, hACC2 construct lacking 128 N-terminal amino acids, 25° C., 340 nm; read-out: IC50
T1 construct: made in house; host or cells: insect cells (baculoviral expression system)
Outline: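 Human ACC2 lacking N-terminal 128 aa, baculovirus/insect-cell expressed, anion-exchange purified; 100 mM Tris pH 7.5, 10 mM citrate, 25 mM KHCO3, 1% DMSO. Started with 200 μM NADH and acetyl-CoA plus 500 μM ATP; PK/LDH-coupled A340 decrease read 15 min at 25° C. IC50 by nonlinear fit of low-control-subtracted slopes.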

T1 sequence (O00763 129-2458 limits assumed): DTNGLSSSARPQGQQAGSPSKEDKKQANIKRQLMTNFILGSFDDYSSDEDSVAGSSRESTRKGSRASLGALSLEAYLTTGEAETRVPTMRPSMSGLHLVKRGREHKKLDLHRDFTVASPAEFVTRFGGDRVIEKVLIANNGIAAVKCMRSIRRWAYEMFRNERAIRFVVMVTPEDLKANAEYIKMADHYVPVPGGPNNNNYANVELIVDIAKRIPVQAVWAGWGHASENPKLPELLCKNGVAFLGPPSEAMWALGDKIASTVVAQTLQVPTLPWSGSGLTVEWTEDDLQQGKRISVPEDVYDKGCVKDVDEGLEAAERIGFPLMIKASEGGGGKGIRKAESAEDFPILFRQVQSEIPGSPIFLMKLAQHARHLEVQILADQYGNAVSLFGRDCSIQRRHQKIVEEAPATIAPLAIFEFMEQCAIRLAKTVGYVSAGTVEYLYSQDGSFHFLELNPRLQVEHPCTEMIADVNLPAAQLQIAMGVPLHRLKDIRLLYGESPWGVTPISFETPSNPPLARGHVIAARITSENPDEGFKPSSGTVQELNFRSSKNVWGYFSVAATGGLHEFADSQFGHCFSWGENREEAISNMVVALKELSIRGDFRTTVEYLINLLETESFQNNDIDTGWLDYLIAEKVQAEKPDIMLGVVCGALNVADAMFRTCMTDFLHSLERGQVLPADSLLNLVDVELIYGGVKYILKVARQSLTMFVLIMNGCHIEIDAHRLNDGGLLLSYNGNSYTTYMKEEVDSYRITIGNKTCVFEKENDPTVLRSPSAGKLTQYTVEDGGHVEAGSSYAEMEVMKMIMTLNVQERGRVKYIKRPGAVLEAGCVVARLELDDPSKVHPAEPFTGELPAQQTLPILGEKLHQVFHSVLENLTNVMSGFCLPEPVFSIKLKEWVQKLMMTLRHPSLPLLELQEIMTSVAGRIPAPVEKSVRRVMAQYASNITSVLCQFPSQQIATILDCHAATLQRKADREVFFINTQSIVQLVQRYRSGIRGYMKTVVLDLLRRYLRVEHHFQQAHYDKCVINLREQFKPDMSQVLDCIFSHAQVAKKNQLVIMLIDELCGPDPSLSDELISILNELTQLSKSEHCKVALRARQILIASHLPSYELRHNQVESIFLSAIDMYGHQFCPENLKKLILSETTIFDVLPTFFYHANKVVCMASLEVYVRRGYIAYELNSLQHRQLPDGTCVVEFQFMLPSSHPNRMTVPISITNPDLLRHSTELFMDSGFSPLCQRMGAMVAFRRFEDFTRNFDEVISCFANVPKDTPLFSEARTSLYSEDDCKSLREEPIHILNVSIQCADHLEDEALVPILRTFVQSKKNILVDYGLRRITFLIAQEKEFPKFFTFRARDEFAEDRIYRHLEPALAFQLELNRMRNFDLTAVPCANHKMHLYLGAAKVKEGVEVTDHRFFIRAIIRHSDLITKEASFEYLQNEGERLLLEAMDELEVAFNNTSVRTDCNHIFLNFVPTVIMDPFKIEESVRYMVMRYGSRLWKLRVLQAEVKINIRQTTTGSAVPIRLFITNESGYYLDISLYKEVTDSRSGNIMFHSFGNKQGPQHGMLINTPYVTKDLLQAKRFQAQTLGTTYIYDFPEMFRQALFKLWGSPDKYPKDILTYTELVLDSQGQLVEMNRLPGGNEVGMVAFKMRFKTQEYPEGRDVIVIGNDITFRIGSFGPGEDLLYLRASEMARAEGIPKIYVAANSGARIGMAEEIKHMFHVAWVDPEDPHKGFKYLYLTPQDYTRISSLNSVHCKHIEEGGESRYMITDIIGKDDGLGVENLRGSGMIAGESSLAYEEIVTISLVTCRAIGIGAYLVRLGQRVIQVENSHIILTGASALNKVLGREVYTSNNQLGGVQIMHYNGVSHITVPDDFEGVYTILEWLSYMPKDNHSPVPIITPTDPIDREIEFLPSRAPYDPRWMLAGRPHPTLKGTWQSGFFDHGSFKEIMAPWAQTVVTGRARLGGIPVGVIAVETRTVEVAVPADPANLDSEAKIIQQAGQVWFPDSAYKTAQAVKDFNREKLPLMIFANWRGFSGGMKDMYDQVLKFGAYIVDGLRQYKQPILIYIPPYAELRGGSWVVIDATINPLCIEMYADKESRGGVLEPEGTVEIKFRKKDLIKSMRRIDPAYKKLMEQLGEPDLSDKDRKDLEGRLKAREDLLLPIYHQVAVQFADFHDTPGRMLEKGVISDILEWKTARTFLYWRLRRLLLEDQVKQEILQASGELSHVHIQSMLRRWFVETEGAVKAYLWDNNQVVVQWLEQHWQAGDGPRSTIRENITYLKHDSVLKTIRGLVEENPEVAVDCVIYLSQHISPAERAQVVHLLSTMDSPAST

Compound | IC50 [nM]
CC(=O)N[C@@H](C)c1ccc(C2CCN(c3cc(OC4CCCC4)ncn3)CC2)cc1 [Example 11.7] | 170
Cc1cccc(-c2cnc(N3CCC(c4ccc([C@H](C)NC(=O)N(C)C)cc4)CC3)nc2)c1 [Example 10.107] | 110
CC(=O)N[C@@H](C)c1ccc(C2CCN(c3ncc(OCC4CC4)cn3)CC2)cc1 [Example 4.52] | 530
CC(C)Oc1ncc(F)c(N2CCC(c3ccc([C@H](C)NC(=O)C4CC4)cc3)CC2)n1 [Example 11.129] | 1300
CC(=O)N[C@@H](C)c1ccc(C2CCN(c3ccc4c(c3F)OCCO4)CC2)cc1 [Example 1.192] | 120
CCOc1ccc(N2CCC(c3ccc([C@H](C)NC(=O)CC)cc3)CC2)c(F)c1 [Example 1.168] | 500
CCOc1ccc(N2CCC(c3ccc([C@H](C)NC(=O)C4CC4)cc3)CC2)nc1 [Example 5.58] | 860
CC(=O)N[C@@H](C)c1ccc(C2CCN(c3ncc(-c4ccc(C(C)C)cc4)cn3)CC2)cc1 [Example 10.11] | 5800
COc1ccc(N2CCC(c3ccc([C@H](C)NC(C)=O)cc3)CC2)cc1C [Example 1.160] | 2100
CC(=O)N[C@@H](C)c1ccc(C2CCN(c3cnc(C4CC4)cn3)CC2)cc1 [Example 1.173] | 820
CCOc1ccc(N2CCC(c3ccc([C@H](C)NC(=O)CC)cc3)CC2)cc1 [Example 6.8] | 190
COC(=O)c1cncc(N2CCC(c3ccc([C@H](C)NC(C)=O)cc3)CC2)n1 [Example 5.54] | 9300
C[C@H](NC(=O)C1CC1)c1ccc(C2CCN(c3ncc(-c4ccoc4)cn3)CC2)cc1 [Example 10.104] | 170
CC(=O)N[C@@H](C)c1ccc(C2CCN(c3ncc(C4CC4)cn3)CC2)cc1 [Example 10.202] | 570
CC(=O)N[C@@H](C)c1ccc(C2CCN(c3ncc(-c4ccccn4)cn3)CC2)cc1 [Example 10.203] | 160
CCOc1ccc(N2CCC(c3ccc([C@H](C)NC(=O)c4ccc[nH]4)cc3)CC2)cc1 [Example 6.22] | 670
CNc1nccc(N2CCC(c3ccc([C@H](C)NC(C)=O)cc3)CC2)n1 [Example 11.84] | 6500
CC(=O)N[C@@H](C)c1ccc(C2CCN(c3cc(N(C)C(C)C)ncn3)CC2)cc1 [Example 11.48] | 580
CC(=O)N[C@@H](C)c1ccc(C2CCN(c3cc(N4CC5CCCC5C4)ncn3)CC2)cc1 (stereo partly shown) [Example 11.77] | 280
CC(=O)N[C@@H](C)c1ccc(C2CCN(c3ccccc3)CC2)cc1 [Example 1.45] | 370

Compound | IC50 [nM]
CC(=O)N[C@@H](C)c1ccc(C2CCN(c3ccnc(NC4CCCC4)n3)CC2)cc1 [Example 11.61] | 1300
CC(=O)N[C@@H](C)c1ccc(C2CCN(c3ccc(OC4CCCCC4)cc3)CC2)cc1 [Example 9.23] | 200
CCC(CC)Oc1cc(N2CCC(c3ccc([C@H](C)NC(C)=O)cc3)CC2)ncn1 [Example 11.22] | 820
COc1cc(OCC2CC2)ccc1N1CCC(c2ccc([C@H](C)NC(C)=O)cc2)CC1 [Example 1.36] | 410
CC(=O)N[C@@H](C)c1ccc(C2CCN(c3ccnc(Oc4cncnc4)c3)CC2)cc1 [Example 3.5] | 590
CC(=O)N[C@@H](C)c1ccc(C2CCN(c3ccc(OCCC(C)C)cc3)CC2)cc1 [Example 9.20] | 90
CC(=O)N[C@@H](C)c1ccc(C2CCN(c3ccc(OC4CCCC4)c(Cl)c3)CC2)cc1 [Example 8.39] | 110
C[C@H](NC(=O)C1CC1)c1ccc(C2CCN(c3nc(N4CCCC4)ncc3F)CC2)cc1 [Example 11.121] | 470
COc1ccc(Nc2cc(N3CCC(c4ccc([C@H](C)NC(C)=O)cc4)CC3)ncn2)cc1 [Example 11.53] | 6000
COC1CCN(c2cc(N3CCC(c4ccc([C@H](C)NC(C)=O)cc4)CC3)ncn2)CC1 [Example 11.81] | 2300
CC(=O)NC(C)Cc1ccc(C2CCN(c3ccnc(N(C)C4CCCC4)n3)CC2)cc1 (stereo not shown) [Example 12.1, N-[2-(4-{1-[2-(Cyclopentyl-methyl-amino)-pyrimidin-4-yl]-piperidin-4-yl}-phenyl)-1-methyl-ethyl]-acetamide] | 610
CCCOc1ccc(N2CCC(c3ccc([C@H](C)NC(=O)OC)cc3)CC2)cc1 [Example 1.13] | 100
CC(=O)N[C@@H](C)c1ccc(C2CCN(c3ncc(-c4ccc5c(c4)CCO5)cn3)CC2)cc1 [Example 10.24] | 70
COc1ccc(N2CCC(c3ccc([C@H](C)NC(C)=O)cc3)CC2)nc1 [Example 5.2] | 330
C[C@H](NC(=O)N(C)C)c1ccc(C2CCN(c3ncc(-c4ccc(C#N)cc4)cn3)CC2)cc1 [Example 10.109] | 90
C[C@H](NC(=O)C1CC1)c1ccc(C2CCN(c3ncc(-c4ccc(F)cc4)cn3)CC2)cc1 [Example 10.101] | 80
CC(=O)N[C@@H](C)c1ccc(C2CCN(c3ccc4c(c3)OCC(C)(C)CO4)CC2)cc1 [Example 1.61] | 210
CC(=O)N[C@@H](C)c1ccc(C2CCN(c3ncc(-c4ccc(C#N)nc4)cn3)CC2)cc1 [Example 10.82] | 150
CC(=O)N[C@@H](C)c1ccc(C2CCN(c3ncc(-c4ccc(F)cc4F)cn3)CC2)cc1 [Example 10.53] | 80

The remaining lines, values ahead:

IC50 [nM] | Compound
80 | CCOc1ccc(N2CCC(c3ccc([C@H](C)NC(=O)C(F)(F)F)cc3)CC2)cc1 [Example 40.2]
16900 | CC(=O)N[C@@H](C)c1ccc(C2CCN(c3ncc(C(=O)N4Cc5cnn(C)c5C4)cn3)CC2)cc1 [Example 18.28]
620 | CCNc1ncc(N2CCC(c3ccc([C@H](C)NC(C)=O)cc3)CC2)cn1 [Example 16.4]
1600 | CC(=O)N[C@@H](C)c1ccc(C2CCN(c3cccc(C(=O)N4CCc5ccccc5C4)c3)CC2)cc1 [Example 29.1, (S)—N-(1-(4-(1-(3-(1,2,3,4-Tetrahydroisoquinoline-2-carbonyl)phenyl)piperidin-4-yl)phenyl)ethyl)acetamide]
3100 | CCOc1ccc(-c2cc(N3CCC(c4ccc([C@H](C)NC(C)=O)cc4)CC3)ncn2)cc1 [Example 22.9]
11500 | CC(=O)N[C@@H](C)c1ccc(C2CCN(c3ncc(C(=O)N(C)CC4OCCO4)cn3)CC2)cc1 [Example 18.10]
450 | C[C@H](NC(=O)N(C)C)c1ccc(C2CCN(c3cnc(OCC4CC4)nc3)CC2)cc1 [Example 16.6]
350 | COC(=O)c1cccc(N2CCC(c3ccc([C@H](C)NC(C)=O)cc3)CC2)c1 [Example 15.2]
20800 | CC(=O)N[C@@H](C)c1ccc(C2CCN(c3ncc(C(=O)N(C)C4CCS(=O)(=O)C4)cn3)CC2)cc1 (stereo partly shown) [Example 18.69]
260 | COc1nc(N2CCC(c3ccc([C@H](C)NC(C)=O)cc3)CC2)ncc1-c1ccccc1 [Example 21.1, (S)—N-(1-{4-[1-(4-Methoxy-5-phenyl-pyrimidin-2-yl)-piperidin-4-yl]-phenyl}-ethyl)-acetamide]
11800 | CC(=O)N[C@@H](C)c1ccc(C2CCN(c3ncc(C(=O)NCC4CCN(Cc5ccccc5)C4)cn3)CC2)cc1 (stereo partly shown) [Example 18.62]
1500 | COCc1nc2cc(N3CCC(c4ccc([C@H](C)NC(C)=O)cc4)CC3)ccc2o1 [Example 15.7]
1700 | CC(=O)N[C@@H](C)c1ccc(C2CCN(c3ncc(C(=O)NCC4CC4)cn3)CC2)cc1 [Example 18.77]
